From patent publication US11065266B2, “Method of treating melanoma using an inhibitor of an atypical protein kinase C” (UNIVERSITY OF SOUTH FLORIDA, priority 2016, dated 2021)

Experiments:
other PKC isoforms = conditions: cited from earlier work
SK-MEL-2 cells = experiment: Growth inhibition assay (cell counts over 72 h); format: cell-based, human; conditions: for inhibition at 0.05 µM / inhibition at 0.1 µM / inhibition at 0.2 µM / inhibition at 0.5 µM / inhibition at 1 µM: Homo sapiens; for inhibition at 0.05 µM: 50 nM; for inhibition at 0.1 µM: 100 nM; for inhibition at 0.2 µM: 200 nM; for inhibition at 0.5 µM: 500 nM
Protocol: For the growth inhibition assays, the PCS-200-013 cells or SK-MEL-2 cells were seeded at 40,000 cells/well into 6-well-plates and treated with the respective inhibitor. Cells in each well were counted after 24 h from the time of treating with the inhibitor at the desired concentration. Each inhibitor had triplicate plates which were counted at 24th, 48th and 72nd hours after initiating the inhibitor treatment. Inhibitors were added after 24 h of seeding point. The inhibitor concentrations were none (control), 50 nM, 100 nM, 200 nM, 500 nM and 1 μM. The cells were counted using a hemocytometer. The same procedure was followed for inhibitors ICA-1, ACPD, 3,4-diamino-2,7-naphthalenedisulfonic acid DNDA and 8-hydroxy-1, 3,6-naphthalenetrisulfonic acid (ζ-Stat).
Cell growth of malignant melanoma cells was reduced by applying PKC-ι and PKC-ζ inhibitors (FIGS. 3A-3D and 4A-4B). Both PKC-ι, and PKC-ζ heavily contributed to the migration of metastasized melanoma cells and migration can be suppressed using ICA-1 and ACPD. For example, Tables 1-2 provide a summary of the percentage inhibition of growth of SK-MEL-2 cells (Table 1 for ICA-1 and Table 2 for ACPD) as a function of time over 72 h period. Both ACPD and ICA-1 have 40% effectiveness on cell proliferation inhibition at the highest concentration used. Inhibition is increased upon increasing the concentration.

[1] = test system: MAPK, Akt2, FGFR 1/2/3/4, mTOR, GSK3B, IRAK1/4, JAK 1/2, MEK1, ERK1/2, JNK 1/2, PKA, Src, ROCK2 and PI3K; conditions: cited from earlier work
PKC-ι = biological target: T1, PKC-ι (Homo sapiens, UniProt P41743); parameters: dose or concentration left out as unconfirmed; conditions: cited from earlier work
T1 sequence (P41743 1-596): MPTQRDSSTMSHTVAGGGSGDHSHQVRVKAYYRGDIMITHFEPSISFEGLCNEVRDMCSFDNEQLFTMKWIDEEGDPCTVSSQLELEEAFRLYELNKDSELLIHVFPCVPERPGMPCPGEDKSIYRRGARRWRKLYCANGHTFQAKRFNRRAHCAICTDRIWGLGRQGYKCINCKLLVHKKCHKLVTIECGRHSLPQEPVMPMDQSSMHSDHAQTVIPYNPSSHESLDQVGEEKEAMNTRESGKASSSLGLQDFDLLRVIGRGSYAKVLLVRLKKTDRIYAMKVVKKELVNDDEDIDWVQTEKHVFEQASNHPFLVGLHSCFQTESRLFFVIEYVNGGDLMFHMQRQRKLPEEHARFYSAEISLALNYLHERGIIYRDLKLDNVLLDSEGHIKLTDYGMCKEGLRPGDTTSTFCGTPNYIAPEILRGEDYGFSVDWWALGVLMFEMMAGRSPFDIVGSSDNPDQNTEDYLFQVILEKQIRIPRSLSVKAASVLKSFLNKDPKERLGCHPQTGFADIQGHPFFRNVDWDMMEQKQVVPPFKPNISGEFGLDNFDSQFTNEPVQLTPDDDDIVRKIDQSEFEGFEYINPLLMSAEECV

[2] = test system: malignant melanoma cells (SK-MEL-2 and MeWo); experiment: WST-1 assay, ζ-Stat; format: cell-based, human; conditions: 2.5 μM
Protocol: Approximately 4×10^3 cells (PCS-200-013, SK-MEL-2 and MeWo) were cultured in a 96 well plate. […] This IC50 was obtained based on the cell viability counts in the previous experiments. Additional doses of sterile water or inhibitor were supplied every 24 h during 3 day incubation period. At the end of 3 day treatment, media were removed and fresh media (100 μL) were added with 4-[3-(4-iodophenyl)-2-(4-nitropheny))-2H-5-tetrazolio]-1,3-benzene disulfonate (WST-1) reagent (10 μL) to each well. The absorbance was measured at 450 nm for every 0.5 hour up to 3 hours using the Synergy HT microplate reader from Biotek (Winooski, Vt.).
Cell proliferation was measured using WST-1 assay for SK-MEL-2 (FIG. 16A) and MeWo (FIG. 16b). Absorbance at 450 nm due to production of water soluble formazan was measured as a function of time and the absorbance is directly proportional to the number of cells. The experimental concentration for ζ-Stat was 2.5 μM. N=3 experiments were performed for each cell line and mean±SD are plotted.

SMILES | effect on other PKC isoforms (other PKC isoforms) | inhibition at 0.05 µM (SK-MEL-2 cells; SK-MEL-2, 24 h, Day 1) [%] | inhibition at 0.1 µM (SK-MEL-2 cells; SK-MEL-2, 24 h, Day 1) [%] | inhibition at 0.2 µM (SK-MEL-2 cells; SK-MEL-2, 24 h, Day 1) [%] | inhibition at 0.5 µM (SK-MEL-2 cells; SK-MEL-2, 24 h, Day 1) [%] | inhibition at 1 µM (SK-MEL-2 cells; SK-MEL-2, 24 h, Day 1) [%] | inhibition at 0.05 µM (SK-MEL-2 cells; SK-MEL-2, 48 h, Day 2) [%] | inhibition at 0.1 µM (SK-MEL-2 cells; SK-MEL-2, 48 h, Day 2) [%] | inhibition at 0.2 µM (SK-MEL-2 cells; SK-MEL-2, 48 h, Day 2) [%] | inhibition at 0.5 µM (SK-MEL-2 cells; SK-MEL-2, 48 h, Day 2) [%] | inhibition at 1 µM (SK-MEL-2 cells; SK-MEL-2, 48 h, Day 2) [%] | inhibition at 0.05 µM (SK-MEL-2 cells; SK-MEL-2, 72 h, Day 3) [%] | inhibition at 0.1 µM (SK-MEL-2 cells; SK-MEL-2, 72 h, Day 3) [%] | inhibition at 0.2 µM (SK-MEL-2 cells; SK-MEL-2, 72 h, Day 3) [%] | inhibition at 0.5 µM (SK-MEL-2 cells; SK-MEL-2, 72 h, Day 3) [%] | inhibition at 1 µM (SK-MEL-2 cells; SK-MEL-2, 72 h, Day 3) [%] | effectiveness on cell proliferation inhibition (SK-MEL-2 cells; at the highest concentration used) [%] | inhibition of other kinases [1] | inhibition of PKC-ι (PKC-ι) | toxicity according to the WST-1 assay [2]
CC(=O)C1=C(O)CCC1=O [ACPD, 2-acetyl-1,3-cyclopentanedione] | without affecting | 1 | 11 | 19 | 26 | 36 | 4 | 10 | 23 | 30 | 35 | 5 | 9 | 20 | 26 | 37 | 40 | does not inhibit | approximately 40% | –
O=S(=O)(O)c1cc(O)c2c(S(=O)(=O)O)cc(S(=O)(=O)O)cc2c1 [ζ-Stat, 8-hydroxy-1,3,6-naphthalenetrisulfonic acid] | – | – | – | – | – | – | – | – | – | – | – | – | – | – | – | – | – | – | – | did not show toxicity
